# Laboratory results published in ChEMBL document CHEMBL5335794, “Discovery of novel multifunctional ligands targeting GABA transporters, butyrylcholinesterase, β-secretase, and amyloid β aggregation as potential treatment of Alzheimer's disease” (Eur J Med Chem, 2023).
# What was measured:
# [1] = biological target: Amyloid-beta precursor protein (Homo sapiens) (UniProt P05067); test: Inhibition of amyloid beta40 (unknown origin) aggregation at 10 uM measured every 5 mins by ThT fluorescence based assay relative to control
# Sequence of Amyloid-beta precursor protein (Homo sapiens) (P05067 whole entry): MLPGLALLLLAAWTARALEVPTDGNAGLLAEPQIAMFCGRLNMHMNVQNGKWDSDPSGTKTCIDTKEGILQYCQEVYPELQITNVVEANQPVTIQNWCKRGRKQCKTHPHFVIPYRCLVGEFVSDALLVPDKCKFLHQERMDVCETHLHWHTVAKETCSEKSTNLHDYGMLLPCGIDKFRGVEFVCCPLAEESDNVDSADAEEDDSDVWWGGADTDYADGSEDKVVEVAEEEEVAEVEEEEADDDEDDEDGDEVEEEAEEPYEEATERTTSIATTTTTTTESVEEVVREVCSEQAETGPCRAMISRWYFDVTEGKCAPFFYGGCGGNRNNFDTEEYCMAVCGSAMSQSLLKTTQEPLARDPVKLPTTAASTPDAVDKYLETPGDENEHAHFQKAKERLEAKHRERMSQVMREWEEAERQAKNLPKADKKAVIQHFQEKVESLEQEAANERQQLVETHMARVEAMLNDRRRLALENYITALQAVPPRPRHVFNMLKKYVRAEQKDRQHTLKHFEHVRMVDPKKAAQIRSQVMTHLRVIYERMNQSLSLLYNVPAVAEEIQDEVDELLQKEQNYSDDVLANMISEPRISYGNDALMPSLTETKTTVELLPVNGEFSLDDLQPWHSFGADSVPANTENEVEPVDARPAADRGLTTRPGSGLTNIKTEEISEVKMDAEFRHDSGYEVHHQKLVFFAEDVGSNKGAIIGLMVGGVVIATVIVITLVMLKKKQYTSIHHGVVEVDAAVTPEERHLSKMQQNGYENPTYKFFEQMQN
# [2] = biological target: Sodium- and chloride-dependent GABA transporter 1 (Mus musculus) (UniProt P31648); test: Inhibition of NO 711 marker binding to mouse GAT1 assessed as residual activity at 100 uM by LC-ESI-MS/MS based competitive MS binding assay relative to control
# Cholinesterase = Cholinesterase (Equus caballus, UniProt P81908)
# Sequence of Cholinesterase (P81908 whole entry): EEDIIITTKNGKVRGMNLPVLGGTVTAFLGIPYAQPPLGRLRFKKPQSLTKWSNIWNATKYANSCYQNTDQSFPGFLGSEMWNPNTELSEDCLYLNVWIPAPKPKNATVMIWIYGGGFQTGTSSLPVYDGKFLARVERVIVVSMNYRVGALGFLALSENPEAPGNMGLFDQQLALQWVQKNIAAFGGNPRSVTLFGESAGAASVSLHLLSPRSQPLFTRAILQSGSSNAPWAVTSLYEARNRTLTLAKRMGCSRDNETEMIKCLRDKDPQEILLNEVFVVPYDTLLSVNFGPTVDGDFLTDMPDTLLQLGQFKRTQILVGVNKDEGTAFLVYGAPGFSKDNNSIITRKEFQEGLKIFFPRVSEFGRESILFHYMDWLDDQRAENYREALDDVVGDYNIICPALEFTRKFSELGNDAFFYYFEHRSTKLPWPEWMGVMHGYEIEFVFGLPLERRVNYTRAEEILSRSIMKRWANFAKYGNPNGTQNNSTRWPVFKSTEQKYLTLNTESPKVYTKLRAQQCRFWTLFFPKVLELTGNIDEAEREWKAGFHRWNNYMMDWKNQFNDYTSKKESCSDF
# Description: Inhibition of equine serum BuChE using butyrylthiocholine iodide as substrate preincubated for 5 mins followed by substrate addition and measured after 5 mins by DTNB reagent based Ellman's method
# Beta-secretase 1 [3] = biological target: T1, Beta-secretase 1 (Homo sapiens, UniProt P56817); conditions: dose 50.0 µM, time 60.0 min
# T1 sequence (P56817 whole entry): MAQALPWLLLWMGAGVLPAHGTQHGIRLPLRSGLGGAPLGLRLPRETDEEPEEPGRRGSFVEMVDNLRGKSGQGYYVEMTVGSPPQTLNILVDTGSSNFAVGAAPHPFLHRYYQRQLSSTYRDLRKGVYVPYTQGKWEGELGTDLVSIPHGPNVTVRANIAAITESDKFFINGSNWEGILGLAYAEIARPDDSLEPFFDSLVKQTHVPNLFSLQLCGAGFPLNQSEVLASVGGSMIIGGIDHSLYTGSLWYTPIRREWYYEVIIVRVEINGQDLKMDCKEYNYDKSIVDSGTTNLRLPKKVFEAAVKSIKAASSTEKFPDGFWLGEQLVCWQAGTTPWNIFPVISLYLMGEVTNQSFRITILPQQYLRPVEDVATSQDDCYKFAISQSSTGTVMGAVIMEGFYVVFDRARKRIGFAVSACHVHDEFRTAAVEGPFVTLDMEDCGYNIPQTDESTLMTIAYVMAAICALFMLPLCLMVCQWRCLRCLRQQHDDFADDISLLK
# [4] = Inhibition of mouse GAT3 transfected in HEK293 cells assessed as reduction in [3H]-GABA uptake preincubated for 25 mins followed by [3H]-GABA addition and measured after 4 mins by liquid scintillation counting analysis; format: cell-based; conditions: for IC50: HEK293, read-out: pIC50 (converted)
# [5] = biological target: Acetylcholinesterase (Electrophorus electricus) (UniProt O42275); test: Inhibition of electric eel AChE using acetylthiocholine iodide as substrate at 10 uM preincubated for 5 mins followed by substrate addition and measured after 5 mins by DTNB reagent based Ellman's method relative to control; conditions: time 10.0 min
# Sequence of Acetylcholinesterase (Electrophorus electricus) (O42275 24-633 limits assumed): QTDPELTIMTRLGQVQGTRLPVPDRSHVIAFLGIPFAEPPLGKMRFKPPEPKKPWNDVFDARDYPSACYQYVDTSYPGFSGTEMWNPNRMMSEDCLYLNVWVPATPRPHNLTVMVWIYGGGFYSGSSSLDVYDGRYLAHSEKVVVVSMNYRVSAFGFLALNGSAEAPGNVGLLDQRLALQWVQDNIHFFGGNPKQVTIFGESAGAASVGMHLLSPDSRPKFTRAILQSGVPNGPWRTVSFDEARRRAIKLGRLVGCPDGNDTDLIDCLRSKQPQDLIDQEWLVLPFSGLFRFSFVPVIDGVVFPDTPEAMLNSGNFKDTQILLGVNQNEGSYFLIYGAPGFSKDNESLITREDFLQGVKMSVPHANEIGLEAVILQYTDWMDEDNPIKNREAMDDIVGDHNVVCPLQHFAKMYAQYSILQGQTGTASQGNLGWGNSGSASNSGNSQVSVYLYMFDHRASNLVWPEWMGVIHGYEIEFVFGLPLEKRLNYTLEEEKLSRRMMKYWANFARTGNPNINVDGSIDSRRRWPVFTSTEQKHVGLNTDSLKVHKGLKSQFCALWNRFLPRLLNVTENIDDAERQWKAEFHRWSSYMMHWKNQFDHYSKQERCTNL
# GABA transporter 4 = biological target: T2, GABA transporter 4 (Mus musculus, UniProt P31650); test: Inhibition of mouse GAT4 transfected in HEK293 cells assessed as reduction in [3H]-GABA uptake preincubated for 25 mins followed by [3H]-GABA addition and measured after 4 mins by liquid scintillation counting analysis; format: cell-based; conditions: read-out: pIC50 (converted)
# T2 sequence (P31650 whole entry): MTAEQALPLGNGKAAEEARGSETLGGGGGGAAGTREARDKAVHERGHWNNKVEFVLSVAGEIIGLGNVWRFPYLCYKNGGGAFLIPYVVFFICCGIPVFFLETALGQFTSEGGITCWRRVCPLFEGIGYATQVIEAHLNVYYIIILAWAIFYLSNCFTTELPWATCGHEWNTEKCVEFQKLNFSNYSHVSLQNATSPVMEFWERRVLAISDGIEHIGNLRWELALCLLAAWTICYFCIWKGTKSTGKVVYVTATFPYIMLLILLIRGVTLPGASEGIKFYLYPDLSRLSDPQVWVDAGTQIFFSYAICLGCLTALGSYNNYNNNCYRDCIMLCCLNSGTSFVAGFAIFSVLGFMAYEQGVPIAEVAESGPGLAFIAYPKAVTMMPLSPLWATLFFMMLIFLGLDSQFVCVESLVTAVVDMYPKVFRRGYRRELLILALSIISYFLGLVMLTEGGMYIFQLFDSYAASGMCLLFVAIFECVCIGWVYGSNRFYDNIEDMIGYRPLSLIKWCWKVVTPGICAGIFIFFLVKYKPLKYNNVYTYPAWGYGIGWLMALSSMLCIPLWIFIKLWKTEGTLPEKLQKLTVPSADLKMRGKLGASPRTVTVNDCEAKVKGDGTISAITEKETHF
# [6] = biological target: T3, Sodium- and chloride-dependent GABA transporter 1 (Mus musculus, UniProt P31648); test: Inhibition of mouse GAT1 transfected in HEK293 cells assessed as reduction in [3H]-GABA uptake preincubated for 25 mins followed by [3H]-GABA addition and measured after 4 mins by liquid scintillation counting analysis; format: cell-based; conditions: read-out: pIC50 (converted)
# [7] = biological target: Amyloid-beta precursor protein (Homo sapiens) (UniProt P05067); test: Inhibition of amyloid beta42 (unknown origin) aggregation expressed in Escherichia coli BL21 (DE3) at 10 uM measured every 5 mins by ThT fluorescence based assay relative to control
# GABA transporter 2 = biological target: T4, GABA transporter 2 (Mus musculus, UniProt P31651); test: Inhibition of mouse GAT2 transfected in HEK293 cells assessed as reduction in [3H]-GABA uptake preincubated for 25 mins followed by [3H]-GABA addition and measured after 10 mins by liquid scintillation counting analysis; format: cell-based; conditions: read-out: pIC50 (converted)
# T4 sequence (P31651 whole entry): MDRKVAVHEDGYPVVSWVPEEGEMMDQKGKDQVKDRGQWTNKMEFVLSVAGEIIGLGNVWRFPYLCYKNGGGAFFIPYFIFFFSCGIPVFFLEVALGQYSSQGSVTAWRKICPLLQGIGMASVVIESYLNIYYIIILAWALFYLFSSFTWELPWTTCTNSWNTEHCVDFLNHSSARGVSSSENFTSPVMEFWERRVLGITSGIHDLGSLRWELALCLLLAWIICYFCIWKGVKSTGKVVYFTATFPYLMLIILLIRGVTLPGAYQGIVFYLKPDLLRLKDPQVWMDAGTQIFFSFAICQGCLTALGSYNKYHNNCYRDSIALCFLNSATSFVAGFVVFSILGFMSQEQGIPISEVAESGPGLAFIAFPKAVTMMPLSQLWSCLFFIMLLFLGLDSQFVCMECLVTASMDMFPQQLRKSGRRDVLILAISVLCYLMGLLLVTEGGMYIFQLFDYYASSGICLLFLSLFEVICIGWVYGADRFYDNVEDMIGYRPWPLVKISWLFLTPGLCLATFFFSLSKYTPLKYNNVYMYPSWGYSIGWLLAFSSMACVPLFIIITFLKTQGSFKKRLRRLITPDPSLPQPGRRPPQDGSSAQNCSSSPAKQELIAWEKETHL
# [8] = biological target: T3, Sodium- and chloride-dependent GABA transporter 1; test: Inhibition of NO 711 marker binding to mouse GAT1 by LC-ESI-MS/MS based competitive MS binding assay
# Beta-secretase 1 [9] = biological target: T1, Beta-secretase 1
# [10] = biological target: Cholinesterase (Equus caballus) (UniProt P81908); test: Inhibition of equine serum BuChE using butyrylthiocholine iodide as substrate at 10 uM preincubated for 5 mins followed by substrate addition and measured after 5 mins by DTNB reagent based Ellman's method relative to control; conditions: time 10.0 min
# Sequence of Cholinesterase (Equus caballus) (P81908 whole entry): as the sequence (P81908 whole entry) above
SMILES,inhibition [1],Activity [2],IC50 (Cholinesterase),inhibition (Beta-secretase 1 [3]),IC50 [4],inhibition [5],IC50 (GABA transporter 4),IC50 [6],inhibition [7],IC50 (GABA transporter 2),Ki [8],IC50 (Beta-secretase 1 [9]),inhibition [10],pIC50 ([4]; hek293)
CN(CCOCCn1c2ccccc2c2ccccc21)C(CCN)C(=O)NCc1ccc(F)cc1 (stereo not drawn),95.3%,82%,0.345 µM,78%,17.4 µM,< 10%,18.2 µM,33.9 µM,30.9%,20 µM,,,,
CN(CC/C=C/c1ccccc1-c1ccccc1)C(CO)C(=O)NCc1ccccc1Cl (stereo not drawn),,75%,2.27 µM,51%,17 µM,< 10%,15.5 µM,16.2 µM,,11 µM,,,,
O=C(NCCCCCCCCNc1c2c(nc3cc(Cl)ccc13)CCCC2)c1ccc2nc(-c3ccc(Cl)cc3)c3c(c2c1)NCCC3,80.8%,,,,,,,,72.1%,,,,,
CN(CC/C=C/c1ccccc1-c1ccccc1)C(CO)C(=O)NCc1ccc(F)cc1 (stereo not drawn),,94%,0.917 µM,52%,22.9 µM,< 10%,30.2 µM,28.8 µM,,22.4 µM,,,,
Cc1ccc(CNC(=O)C(CCN)N(C)CCOCCN2c3ccccc3Sc3ccccc32)cc1 (stereo not drawn),,,3.63 µM,47%,7.76 µM,< 10%,11.5 µM,11 µM,,7.76 µM,40.7 µM,,,
CN(CCOCCN1c2ccccc2Sc2ccccc21)C(CCO)C(=O)NCc1ccccc1Cl (stereo not drawn),,100%,3.55 µM,35%,26.3 µM,< 10%,29.5 µM,44.7 µM,,31.6 µM,,,,
CN(CCC=C1c2ccccc2CCc2ccccc21)C(CCN)C(=O)NCc1ccc(Cl)cc1 (stereo not drawn),,,2.98 µM,,,33%,,,,,,29 µM,,
CC(=O)NCCC(C(=O)NCc1ccccc1)N(C)CCOCCN1c2ccccc2Sc2ccccc21 (stereo not drawn),,82%,,30%,11.7 µM,< 10%,25.1 µM,38 µM,,19.1 µM,,,58%,
CN(CCOCCN1c2ccccc2Sc2ccccc21)C(CCO)C(=O)NCc1ccccc1 (stereo not drawn),,93%,4.34 µM,48%,8.51 µM,< 10%,21.4 µM,35.5 µM,,12.9 µM,,,,
CN(CCOCCN1c2ccccc2Sc2ccccc21)C(CCO)C(=O)NCc1ccc(F)cc1 (stereo not drawn),,84%,4.54 µM,42%,11 µM,< 10%,13.2 µM,26.9 µM,,11.5 µM,,,,
CN(CCOCCn1c2ccccc2c2ccccc21)C(CCO)C(=O)NCc1ccccc1Cl (stereo not drawn),,94%,2.65 µM,79%,13.2 µM,< 10%,11.2 µM,23.4 µM,,16.2 µM,,,,
Cc1ccc(CNC(=O)C(CCN)N(C)CCC=C2c3ccccc3CCc3ccccc32)cc1 (stereo not drawn),,,2.35 µM,,,15%,,,,,,4.03 µM,,
CC(O)CC(C(=O)NCc1ccccc1)N(C)CC/C=C/c1ccccc1-c1ccccc1 (racemic; form 2),,,3.71 µM,,,,41.7 µM,44.7 µM,,15.1 µM,24.5 µM,,,4.87
